Measurements from patent publication US20200392150A1, “Diaryl-B-Lactam Compound and Preparation Method and Pharmaceutical Use Thereof” (Fudan University, priority 2016, published 2020).
Structures can show the parent of a compound that is named as a salt. Where two headings read alike, the source gives them in different places.

Legend:
A2780 = experiment: In vitro cell growth inhibition assay (MTT); assay type: cell-based, human; details: read-out: IC50 A2780
Outline: (§1)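 Following overnight adherence of 5000 cells per well, compounds or 0.2% DMSO were applied for 48 h. Medium was then swapped for 0.5 mg/mL MTT medium (4 h, 37° C), crystals dissolved in DMSO, and plates read at 540 nm.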

Hela = experiment: In vitro cell growth inhibition assay (MTT); assay type: cell-based, human; details: 48 h, read-out: IC50 Hela
Outline: as §1

MDA-MB-231 = experiment: In vitro cell growth inhibition assay (MTT); assay type: cell-based, human; details: read-out: IC50 MDA-MB-231
Outline: as §1

SKOV3 = experiment: In vitro cell growth inhibition assay (MTT); assay type: cell-based, human; details: read-out: IC50 SKOV3
Outline: as §1

[1] = A2780 human ovarian cancer cell line, 48 h, MTT
[2] = Hela human cervical cancer cell line, MTT
[3] = MDA-MB-231 human breast cancer cell line, 48 h, MTT
[4] = SK-OV-3, SKOV-3 human ovarian cancer cell line, 48 h, MTT

Structure (SMILES)	IC50 (A2780; [1]) [nM]	IC50 (Hela; [2]) [nM]	IC50 (MDA-MB-231; [3]) [nM]	IC50 (SKOV3; [4]) [nM]	melting point [°C]	IC50 (A2780; Homo sapiens, A2780, 48 h) [nM]	IC50 (Hela; Homo sapiens, HeLa) [nM]	IC50 (MDA-MB-231; Homo sapiens, MDA-MB-231, 48 h) [nM]	IC50 (SKOV3; Homo sapiens, SK-OV-3, 48 h) [nM]
C=C1C(=O)N(c2cc(OC)c(OC)c(OC)c2)[C@H]1c1ccc(OC)c(NC(=O)C2CC2)c1 [Compound 45, (S)—N-(2-methoxy-5-(3-methylene-4-oxo-1-(3,4,5-trimethoxyphenyl)azetidin-2-yl)phenyl)cyclopropanecarboxamide]	148	321	197	224	181 to 182	–	–	–	–
C=CC(=O)Nc1cc([C@H]2C(=C)C(=O)N2c2cc(OC)c(OC)c(OC)c2)ccc1OC [Compound 42, (S)—N-(2-methoxy-5-(3-methylene-4-oxo-1-(3,4,5-trimethoxyphenyl)azetidin-2-yl)phenyl)acrylamide]	65	125	34	63	143 to 144	–	–	–	–
C=CCOc1cc([C@H]2C(=C)C(=O)N2c2cc(OC)c(OC)c(OC)c2)ccc1OC [Compound 6, (S)-4-(3-(allyloxy)-4-methoxyphenyl)-3-methylene-1-(3,4,5-trimethoxyphenyl)azetidin-2-one]	1250	1150	883	1480	92 to 93	–	–	–	–
C=C1C(=O)N(c2cc(OC)c(OC)c(OC)c2)[C@H]1c1ccc(OC)c(OS(=O)(=O)c2ccc(OC)c(OC)c2)c1 (as salt: benzenesulfonate) [Compound 33, (S)-2-methoxy-5-(3-methylene-4-oxo-1-(3,4,5-trimethoxyphenyl)azetidin-2-yl)phenyl 3,4-dimethoxybenzenesulfonate]	–	–	–	–	70 to 71	–	–	–	–
C=C1C(=O)N(c2cccc(OC)c2)[C@H]1c1ccc(OC)c(O)c1 [Compound 51, (S)-1-(3-methoxyphenyl)-4-(3-hydroxy-4-methoxyphenyl)-3-methyleneazetidin-2-one]	677	2170	1370	1390	104 to 105	–	–	–	–
C=C1C(=O)N(c2cc(OC)c(OC)c(OC)c2)[C@H]1c1ccc(OC)c(NS(N)(=O)=O)c1 [Compound 44, (S)—N-(2-methoxy-5-(3-methylene-4-oxo-1-(3,4,5-trimethoxyphenyl)azetidin-2-yl)phenyl)sulfamoylamide]	354	456	841	833	101 to 102	–	–	–	–
C=C1C(=O)N(c2cc(OC)c(OC)c(OC)c2)[C@H]1c1ccc(OC)c(OC(=O)N2CCOCC2)c1 [Compound 25, (S)-2-methoxy-5-(3-methylene-4-oxo-1-(3,4,5-trimethoxyphenyl)azetidin-2-yl)phenyl morpholine-4-carboxylate]	> 10000	> 10000	> 10000	> 10000	82 to 83	–	–	–	–
C=C1C(=O)N(c2ccc(OC)c(OC)c2)[C@H]1c1ccc(OC)c(O)c1 [Compound 48, (S)-1-(3,4-dimethoxyphenyl)-4-(3-hydroxy-4-methoxyphenyl)-3-methyleneazetidin-2-one]	4570	> 20000	6100	14800	74 to 75	–	–	–	–
C=C1C(=O)N(c2cc(OC)c(OC)c(OC)c2)[C@H]1c1ccc(OC)c(OCCC)c1 [Compound 4, (S)-4-(4-methoxy-3-propoxyphenyl)-3-methylene-1-(3,4,5-trimethoxyphenyl)azetidin-2-one]	3420	6890	5620	5260	90 to 91	–	–	–	–
C=C1C(=O)N(c2cc(OC)c(OC)c(OC)c2)[C@H]1c1ccc(OC)c(OS(=O)(=O)N2CCOCC2)c1 [Compound 29, (S)-2-methoxy-5-(3-methylene-4-oxo-1-(3,4,5-trimethoxyphenyl)azetidin-2-yl)phenyl morpholine-4-sulfonate]	12900	19300	> 20000	15600	134 to 135	–	–	–	–
C=C1C(=O)N(c2cc(OC)c(OC)c(OC)c2)[C@H]1c1ccc(OC)c(OC(=O)C2CC2)c1 [Compound 23, (S)-2-methoxy-5-(3-methylene-4-oxo-1-(3,4,5-trimethoxyphenyl)azetidin-2-yl)phenyl cyclopropanecarboxylate]	–	–	–	–	68 to 69	129	142	207	108
C=C1C(=O)N(c2cc(OC)c(OC)c(OC)c2)[C@H]1c1ccc(OC)c(OC)c1 [Compound 2, (S)-4-(3,4-dimethoxyphenyl)-3-methylene-1-(3,4,5-trimethoxyphenyl)azetidin-2-one]	854	3160	1020	2260	138 to 139	–	–	–	–
C=C1C(=O)N(c2cc(OC)c(OC)c(OC)c2)[C@H]1c1ccc(OC)c(C(=O)OC)c1 [Compound 40, (5)-methyl 2-methoxy-5-(3-methylene-4-oxo-1-(3,4,5-trimethoxyphenyl)azetidin-2-yl)benzoate]	281	942	479	539	112 to 113	–	–	–	–
C=C1C(=O)N(c2cc(OC)c(OC)c(OC)c2)[C@H]1c1ccc(OC)c(OS(=O)(=O)c2ccc(NC(C)=O)cc2)c1 (as salt: benzenesulfonate) [Compound 30, (S)-2-methoxy-5-(3-methylene-4-oxo-1-(3,4,5-trimethoxyphenyl)azetidin-2-yl)phenyl 4-acetamidobenzenesulfonate]	–	–	–	–	87 to 88	–	–	–	–
C=C1C(=O)N(c2cc(OC)c(OC)c(OC)c2)[C@H]1c1ccc(OC)c(OS(=O)(=O)c2ccc(C)cc2)c1 (as salt: benzenesulfonate) [Compound 27, (S)-2-methoxy-5-(3-methylene-4-oxo-1-(3,4,5-trimethoxyphenyl)azetidin-2-yl)phenyl 4-methylbenzenesulfonate]	–	–	–	–	162 to 163	–	–	–	–
C=C1C(=O)N(c2cc(OC)c(OC)c(OC)c2)[C@H]1c1ccc(OC)c(OCC(N)=O)c1 [Compound 16, (S)-2-(2-methoxy-5-(3-methylene-4-oxo-1-(3,4,5-trimethoxyphenyl)azetidin-2-yl)phenoxy)acetamide]	316	818	503	698	–	–	–	–	–
COc1ccc([C@H]2[C@H](C)C(=O)N2c2cc(OC)c(OC)c(OC)c2)cc1N [Compound 104, (3S,4R)-4-(3-amino-4-methoxyphenyl)-3-methyl-1-(3,4,5-trimethoxyphenyl)azetidin-2-one]	20	37	32	25	–	–	–	–	–
C=C1C(=O)N(c2cc(OC)c(OC)c(OC)c2)[C@H]1c1ccc(OC)c(OC(=O)c2ccccc2OC)c1 [Compound 21, (S)-2-methoxy-5-(3-methylene-4-oxo-1-(3,4,5-trimethoxyphenyl)azetidin-2-yl)phenyl 2-methoxybenzoate]	201	106	218	155	–	–	–	–	–
C=C1C(=O)N(c2cc(OC)c(OC)c(OC)c2)[C@H]1c1ccc(OC)c(OCCO)c1 [Compound 8, (S)-4-(3-(2-hydroxyethoxy)-4-methoxyphenyl)-3-methylene-1-(3,4,5-trimethoxyphenyl)azetidin-2-one]	344	925	845	832	–	–	–	–	–
COc1ccc([C@@H]2[C@@H](C)C(=O)N2c2cc(OC)c(OC)c(OC)c2)cc1O [Compound 102, (3R,4S)-4-(3-hydroxy-4-methoxyphenyl)-3-methyl-1-(3,4,5-trimethoxyphenyl)azetidin-2-one]	771	807	1080	650	–	–	–	–	–
COc1ccc([C@H]2/C(=C/c3ccc(C(C)(C)C)cc3)C(=O)N2c2cc(OC)c(OC)c(OC)c2)cc1O [Compound 58, (S,Z)-3-(4-(tert-butyl)benzylidene)-4-(3-hydroxy-4-methoxyphenyl)-1-(3,4,5-trimethoxyphenyl)azetidin-2-one]	> 20000	> 20000	> 20000	> 20000	–	–	–	–	–
C=C1C(=O)N(c2cc(OC)c(OC)c(OC)c2)[C@H]1c1cccc(OC)c1 [Compound 86, (S)-4-(3-methoxyphenyl)-3-methylene-1-(3,4,5-trimethoxyphenyl)azetidin-2-one]	2290	12300	6320	8180	–	–	–	–	–
C=C1C(=O)N(c2cc(OC)c(OC)c(OC)c2)[C@H]1c1ccc(OC)c(OS(=O)(=O)Cc2ccccc2)c1 (as salt: methanesulfonate) [Compound 32, (S)-2-methoxy-5-(3-methylene-4-oxo-1-(3,4,5-trimethoxyphenyl)azetidin-2-yl)phenyl phenylmethanesulfonate]	–	–	–	–	58 to 59	–	–	–	–
C=C1C(=O)N(c2cc(OC)c(OC)c(OC)c2)[C@H]1c1ccc(OC)c(OS(=O)(=O)F)c1 [Compound 107, (S)-2-methoxy-5-(3-methylene-4-oxo-1-(3,4,5-trimethoxyphenyl)azetidin-2-yl)phenyl sulfofluoridate]	121	174	216	178	–	–	–	–	–
